Where two headings read alike, the source gives them in different places.
How the values were obtained:
Horse spleen ferritin [1] = conditions: cited from earlier work
Human transferrin = experiment: Mobilisation of iron from transferrin; assay type: biochemical; conditions: 4×10^-3 M compound, 59Fe(III) transferrin 10^-5 M; for Percentage of iron removed from transferrin, 6 hours: tris HCl pH 7.4, 6 hours; for Percentage of iron removed from transferrin, 24 hours: tris HCl pH 7.4, 24 hours
Protocol: The solution was then dialysed against phosphate buffered saline for 24 hours. The ^59 Fe remaining in the dialysis tube was then […]. For comparative purposes, this procedure was repeated with desferrioxamine and EDTA.

[2] = log Ksol, affinity for iron(III); assay type: physicochemical
From the text: In order to solubilise iron(III) hydroxide, log Ksol must be greater than 0 and in order to remove iron from transferrin, log Ksol should be in excess of 6.0.

Apotransferrin = experiment: Ability of iron complexes to donate iron to apotransferrin; assay type: biochemical; conditions: complex 10^-4 M, apotransferrin 10^-4 M, tris hydrochloride pH 7.4, 37° C., 10 minutes
Protocol: Apotransferrin (10^-4 M) and the iron complex of 1-hydroxy-4-methoxypyrid-4-one (10^-4 M; prepared as described in Example 7) were incubated together in tris hydrochloride (50 mM, buffered to pH 7.4) at 37° C. for 10 minutes when a 1 ml aliquot was removed from the medium and added to a PD10 colum. 0.5 ml fractions were collected directly into scintillation vials for counting.

inverted rat jejunal sac = experiment: In vitro permeation of rat jejunal sac by iron complexes; conditions: uptake into serosal space of everted rat jejunal sac, 37° C., up to 1 hour, relative to ferric chloride as 1
Protocol: The iron uptake into the serosal space of the inverted rat jejunal sac was compared for various iron compounds. Rats (male Sprague Dawley, 60 g) were killed and the jejunum removed, everted and cut into three segments (4 cm length). The segments were tied at both ends and filled with Krebs Ringer buffer (0.2 ml) and incubated in Krebs Ringer buffer containing ^59 Fe complexes at 37° C. for periods up to 1 hour. The contents of the sac were counted for ^59 Fe and measured spectrophotometrically.

physchem = conditions: pH 7.4; for Partition coefficient Kpart, Iron complex [FeIII-(compound)3]: 100 uM; for logD at 100 µM: tris hydrochloride 20 mm
Protocol: Acid washed glassware is used throughout and, following mixing of 5 ml of the 10^-4 M aqueous solution with 5 ml n-octanol for 1 minute, the aqueous n-octanol mixture is centrifuged at 1,000 g for 30 seconds. The two resulting phases are separated for a concentration determination by spectrophotometry on each. For the free hydroxypyridones, the range 220-340 nm is used for concentration determinations whilst for the iron complexes, the range […] is used.

Horse spleen ferritin [3] = experiment: Mobilisation of iron from ferritin; assay type: biochemical; conditions: 3×10^-3 M pyridone, ferritin 10^-6 M, pH 7.4, dialysis
Protocol: Horse spleen ferritin (Sigma) was without further purification and its iron content was estimated spectrophotometrically at 420 nm. The ferritin solution in phosphate buffered saline (Dulbecco-OXOID, 10^-6 M, pH 7.4) was enclosed in a Visking dialysis tube and dialysed against a 3×10^-3 M buffered solution of one of various pyridones as indicated in Table 2. The absorption spectrum of the resulting iron(III) complex in the dialysis solution was recorded after 6 and 24 hours. For comparative purposes, the procedure was repeated using a blank control.

Mice = experiment: In vivo test of iron binding capacity: excretion of 59Fe in iron-loaded mice; conditions: control = 100% excretion
Protocol: Mice were injected intraperitoneally with iron dextran (2 mg) at weekly intervals over a four week period. Two weeks after the final injection, the mice were injected via the tail vein with ^59 Fe Lactoferrin (human lactoferrin, 1 mg per injection 2 μCi). The mice were then caged individually. After a ten day period, 1,4-hydroxypyrid-2-one was administered to groups of 8 mice at 10 mg per mouse either intraperitoneally or intragastrically (in each case 3 of the mice received only one dose whilst 5 received 2 doses at a 24 hour interval). The excretion of iron was recorded at either 12 or 24 hourly intervals over a three day period before and a two day period after administration of the compound. For comparative purposes, the procedure was repeated with a blank control and with desferrioxamine, also at 10 mg per mouse (the intraperitoneally treated mice receiving one dose of desferrioxamine and the intragastrically treated mice two doses at a 24 hour interval).
The results are shown in Table 4, being given on the basis of the control representing 100% excretion, and illustrate the particular advantage of the pyridones as compared with desferrioxamine for oral administration. […] However, this is not the case here, the large SD values being a consequence of the large range among the positive responses.

SMILES | Percentage of iron removed from transferrin, 6 hours (Human transferrin) | Percentage of iron removed from transferrin, 24 hours (Human transferrin) | log Ksol [2] | Partition coefficient Kpart, Iron complex [FeIII-(compound)3] (physchem) | logD at 100 µM (physchem) | Percentage of iron removed from ferritin, 6 hours (Horse spleen ferritin [3]) | Percentage of iron removed from ferritin, 24 hours (Horse spleen ferritin [3]) | further results
O=C(NCCCCN(CCCNC(=O)c1cc(S(=O)(=O)O)cc(O)c1O)C(=O)c1cc(S(=O)(=O)O)cc(O)c1O)c1cc(S(=O)(=O)O)cc(O)c1O [LICAMS] | – | – | – | – | – | – | – | Percentage of iron removed from ferritin, 6 hours (Horse spleen ferritin [1]; 6 mM LICAMS + 12 mM ascorbic acid, similar test from literature (Tufano et al)): 7%
CC(=O)N(O)CCCCCNC(=O)CCC(=O)N(O)CCCCCNC(=O)CCC(=O)N(O)CCCCCN [Desferrioxamine, desferrioxamine, reference compound] | 17% | 22% | 6.0 | – | – | – | – | Percentage of iron removed from ferritin, 6 hours (Horse spleen ferritin [1]; 1 mM desferrioxamine, similar test from literature (Crichton et al)): 1.5%
O=C(O)CN(CCN(CC(=O)O)CC(=O)O)CC(=O)O [EDTA, ethylenediamine tetra-acetic acid, reference compound] | 27% | 67% | – | – | – | – | – | –
COc1ccn([O-])c(=O)c1.COc1ccn([O-])c(=O)c1.COc1ccn([O-])c(=O)c1.[Fe+3] | – | – | – | – | – | – | – | iron removed from the iron complex (donated to apotransferrin) (Apotransferrin): over 90%
[Cl][Fe]([Cl])[Cl] [FeCl3, ferric chloride] | – | – | – | – | – | – | – | Relative Iron Uptake (inverted rat jejunal sac): 1
COc1ccn(O)c(=O)c1 [1-hydroxy-4-methoxypyrid-2-one] | 70% | 71% | 11.3 | 4.85 | -0.824 | 13% | 46% | –
O=c1cc(O)ccn1O [1,4-dihydroxypyrid-2-one] | 80% | 91% | 9.9 | 0.04 | -1.4 | 22% | 54% | Excretion of 59Fe ± SD, Intraperitoneal Administration (Mice; 10 mg per mouse i.p.): 195 ± 57%; Excretion of 59Fe ± SD, Intragastric Administration (Mice; 10 mg per mouse intragastrically): 166 ± 40%
COCCOc1ccn(O)c(=O)c1 [1-hydroxy-4-(2'-methoxyethoxy)-pyrid-2-one] | 72% | 75% | – | 0.6 | -0.854 | 2% | 8% | –
O=C([O-])[C@H](O)[C@@H](O)[C@H](O)[C@H](O)CO.O=C([O-])[C@H](O)[C@@H](O)[C@H](O)[C@H](O)CO.[Fe+2] [Fe^II gluconate] | – | – | – | – | – | – | – | Relative Iron Uptake (inverted rat jejunal sac): 1.6
O=C(O)CN(CCN(CC(=O)O)CC(=O)O)CCN(CC(=O)O)CC(=O)O [diethylenetriamine pentaacetic acid, reference compound] | – | – | 2.0 | – | – | – | – | –

Source: patent USRE34313E, “Pharmaceutical compositions” (priority 1983, dated 1993)
